Assay results taken from patent US4866063A, “Diol metabolites of 7-phenyl-1,2,4-triazolo[2,3-c]pyrimidines-5-amines” (priority 1988, dated 1989).
“Also recorded” adds a separate entry of the source. Like-named read-outs stand apart in the source and are kept apart here.

What was measured:
[1] = Cardiotoxicity of compounds I and II in rats
[2] = rat, in vivo
[3] = cited from earlier work
[4] = Metabolism of compound II in man; format: in vivo
[5] = Metabolism of compound II in the rat; format: in vivo
[6] = Bioavailability compared with precursor compounds; format: in vivo; conditions: vs compounds I and II
[7] = system: heart or adrenal gland; assay: Cardiotoxicity study of compound III in rats (gross and histologic examination, mortality); format: in vivo, female Charles River CD rats; conditions: conclusion of the study
Method: (§1) Compound III was administered by gavage at 40 mg/kg, 80 mg/kg, 160 mg/kg and 320 mg/kg to female Charles River CD rats (10/dosage) once daily for three days. One additional group of rats received vehicle for three days to serve as controls. […] Additional groups of rats (3/dosage) were sacrificed two hours after dosing on day 1, blood collected, and samples analyzed to determine plasma concentrations of compound III.

[8] = Water solubility compared with precursor compounds; format: physicochemical; conditions: vs compounds I and II
[9] = Plasma concentrations of compound III two hours after dosing on day 1; format: in vivo, female Charles River CD rats; conditions: for concentration at 2 h: rat, plasma, po, gavage, two hours after dosing on day 1
Method: as §1

Row | SMILES | Cardiotoxicity [1] | Myocardial lesions and associated changes [2] | Glomerular filtration rate ([3]; acute, mammals) | Renal blood flow ([3]; acute, mammals) | Glomerular filtration rate ([3]; chronic oral dosing) | Renal blood flow ([3]; chronic oral dosing) | Sodium excretion ([3]; chronic oral dosing) | Aliphatic hydroxylation (similar metabolism) [4] | Aliphatic hydroxylation (metabolism) [5] | Bioavailability relative to either precursor compound [6] | Cardiotoxicity [7] | Water solubility relative to either precursor compound [8] | Plasma concentrations relative to those expected at cardiotoxic dosages of compounds I and II ([9]; 40-320 mg/kg) | concentration at 2 h ([9]; 40 mg/kg) [ng/mL] | concentration at 2 h ([9]; 80 mg/kg) [ng/mL] | concentration at 2 h ([9]; 160 mg/kg) [ng/mL] | concentration at 2 h ([9]; 320 mg/kg) [ng/mL]
1 | CCOCCc1c(-c2ccccc2)nc(N)n2ncnc12 [compound I, 8-(2-ethoxyethyl)-7-phenyl-1,2,4-triazolo[2,3-c]pyrimidine-5-amine] | cardiotoxicity seen | myocardial lesions and associated changes found in rats | increases | increases | significant increases | significant increases | significant increases |  |  |  |  |  |  |  |  |  | 
2 | Nc1nc(-c2ccccc2)c(CCO)c2ncnn12 [compound II, 8-(2-hydroxyethyl)-7-phenyl 1,2,4-triazolo[2,3-c]pyrimidine-5-amine] | cardiotoxicity seen | myocardial lesions and associated changes found in rats |  |  |  |  |  | not seen in man | undergoes aliphatic hydroxylation in the rat |  |  |  |  |  |  |  | 
3 | Nc1nc(-c2ccccc2)c(C(O)CO)c2ncnn12 (stereo not shown) [compound III, 8-(1,2-dihydroxyethyl)-7-phenyl-1,2,4-triazolo[2,3-c]pyrimidine-5-amine] |  |  |  |  |  |  |  |  |  | more bioavailable | does not appear to be cardiotoxic; also recorded: no incidence of cardiotoxic side effects in rats | more water soluble | well in excess of the concentrations that one might expect to see at cardiotoxic dosages of compounds I and II | 13800 | 19800 | 36700 | 47000
